Test results published in patent publication US8791102B2, “Acetanilide sphingosine-1-phosphate receptor antagonists” (Exelixis, Inc., priority 2008, dated 2014).

Each compound was assayed against T1, human S1P1 receptors (Homo sapiens, UniProt P21453) (assay: S1P1R antagonist assay (fluorescent membrane potential dye, cAMP readout)). Settings: HEK293 cells expressing human S1P1 receptors and CNG channel; 500 nM NECA; S1P1R agonist 10 nM; 90 minutes; read-out: EC50 or IC50 value.
T1 construct: host or cells: HEK293
T1 sequence (P21453 whole entry): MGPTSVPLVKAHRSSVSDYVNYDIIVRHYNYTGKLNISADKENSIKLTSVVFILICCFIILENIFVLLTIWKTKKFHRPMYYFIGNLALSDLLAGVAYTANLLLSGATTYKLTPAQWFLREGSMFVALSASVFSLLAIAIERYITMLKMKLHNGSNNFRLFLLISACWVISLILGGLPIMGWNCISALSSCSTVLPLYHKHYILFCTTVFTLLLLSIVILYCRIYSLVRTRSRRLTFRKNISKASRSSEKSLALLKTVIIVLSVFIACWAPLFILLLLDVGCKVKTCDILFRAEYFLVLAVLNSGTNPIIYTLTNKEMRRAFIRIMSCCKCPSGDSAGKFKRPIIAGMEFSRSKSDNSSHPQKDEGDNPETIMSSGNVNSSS
Assay type: cell-based

| IC50 [nM] | SMILES |
| --- | --- |
| ≤ 300 | O=C(CN1CCOCC1)N[C@@H](COCc1ccc(F)cc1)C(=O)Nc1ccc(Oc2ccc(F)cc2)cc1 [Compound 210, (S)-3-(4-fluorobenzyloxy)-N-(4-(4-fluorophenoxy)phenyl)-2-(2-morpholinoacetamido)propanamide] |
| ≤ 300 | O=C(CN1CC=CC1)N[C@@H](COCc1ccccc1)C(=O)Nc1ccc(Oc2ccc(F)cc2)cc1 [Compound 214, (S)-3-(benzyloxy)-2-(2-(2,5-dihydro-1H-pyrrol-1-yl)acetamido)-N-(4-(4-fluorophenoxy)phenyl)propanamide] |
| 300 to 1000 | O=C(CN1CCCC1)N[C@@H](COCc1ccccc1)C(=O)Nc1ccc(Oc2ccc(F)cc2)cc1 [Compound 215, (S)-3-(benzyloxy)-N-(4-(4-fluorophenoxy)phenyl)-2-(2-(pyrrolidin-1-yl)acetamido)propanamide] |
| 300 to 1000 | O=C(CN1CCC(Cc2ccccc2)CC1)N[C@@H](COCc1ccccc1)C(=O)Nc1ccc(Oc2ccc(F)cc2)cc1 [Compound 220, (S)-3-(benzyloxy)-2-(2-(4-benzylpiperidin-1-yl)acetamido)-N-(4-(4-fluorophenoxy)phenyl)propanamide] |
| 300 to 1000 | O=C(CN1CCc2ccccc2C1)N[C@@H](COCc1ccccc1)C(=O)Nc1ccc(Oc2ccc(F)cc2)cc1 [Compound 221, (S)-3-(benzyloxy)-2-(2-(3,4-dihydroisoquinolin-2(1H)-yl)acetamido)-N-(4-(4-fluorophenoxy)phenyl)propanamide] |
| ≤ 300 | O=C(Nc1ccc(Oc2ccc(F)cc2)cc1)[C@@H]1C[C@@H](Cc2ccc(F)c(F)c2)CN1C(=O)Cn1ccnn1 [Compound 226, (2S,4R)-1-(2-(1H-1,2,3-triazol-1-yl)acetyl)-4-(3,4-difluorobenzyl)-N-(4-(4-fluorophenoxy)phenyl)pyrrolidine-2-carboxamide] |
| ≤ 300 | O=C(Nc1ccc(Oc2ccc(F)cc2)cc1)[C@@H]1C[C@@H](Cc2ccc(Cl)cc2)CN1C(=O)Cn1nccn1 [Compound 227, (2S,4R)-1-(2-(2H-1,2,3-triazol-2-yl)acetyl)-4-(4-chlorobenzyl)-N-(4-(4-fluorophenoxy)phenyl)pyrrolidine-2-carboxamide] |
| ≤ 300 | O=C(Nc1ccc(Oc2ccc(F)cc2)cc1)[C@@H]1C[C@@H](Cc2ccc(Cl)cc2)CN1C(=O)Cn1ccnn1 [Compound 228, (2S,4R)-1-(2-(1H-1,2,3-triazol-1-yl)acetyl)-4-(4-chlorobenzyl)-N-(4-(4-fluorophenoxy)phenyl)pyrrolidine-2-carboxamide] |
| 300 to 1000 | C[C@@H]1CN(CC(=O)N[C@@H](COCc2ccccc2)C(=O)Nc2ccc(Oc3ccc(F)cc3)cc2)C[C@H](C)O1 [Compound 234, (S)-3-(benzyloxy)-2-(2-((2R,6S)-2,6-dimethylmorpholino)acetamido)-N-(4-(4-fluorophenoxy)phenyl)propanamide] |
| 300 to 1000 | O=C(CN1CCSC1)N[C@@H](COCc1ccccc1)C(=O)Nc1ccc(Oc2ccc(F)cc2)cc1 [Compound 235, (S)-3-(benzyloxy)-N-(4-(4-fluorophenoxy)phenyl)-2-(2-(thiazolidin-3-yl)acetamido)propanamide] |
| 300 to 1000 | O=C(CN1Cc2ccccc2C1)N[C@@H](COCc1ccccc1)C(=O)Nc1ccc(Oc2ccc(F)cc2)cc1 [Compound 240, (S)-3-(benzyloxy)-N-(4-(4-fluorophenoxy)phenyl)-2-(2-(isoindolin-2-yl)acetamido)propanamide] |

The remaining lines, values behind:

| SMILES | IC50 [nM] |
| --- | --- |
| O=C(Cc1c[nH]cn1)N[C@@H](COCc1ccccc1)C(=O)Nc1ccc(OCc2ccccc2)cc1 [Compound 211, (S)-2-(2-(1H-imidazol-4-yl)acetamido)-3-(benzyloxy)-N-(4-(benzyloxy)phenyl)propanamide] | ≤ 300 |
| O=C(Cc1c[nH]c2ccc(F)cc12)N[C@@H](COCc1ccccc1)C(=O)Nc1ccc(Oc2ccc(F)cc2)cc1 [Compound 212, (S)-3-(benzyloxy)-2-(2-(5-fluoro-1H-indol-3-yl)acetamido)-N-(4-(4-fluorophenoxy)phenyl)propanamide] | ≤ 300 |
| CC(C)(C(=O)N[C@@H](COCc1ccccc1)C(=O)Nc1ccc(Oc2ccc(F)cc2)cc1)c1c[nH]cn1 [Compound 213, (S)-2-(2-(1H-imidazol-4-yl)-2-methylpropanamido)-3-(benzyloxy)-N-(4-(4-fluorophenoxy)phenyl)propanamide] | ≤ 300 |
| O=C(CNCCc1c[nH]cn1)N[C@@H](COCc1ccccc1)C(=O)Nc1ccc(Oc2ccc(F)cc2)cc1 [Compound 216, (S)-2-(2-(2-(1H-imidazol-4-yl)ethylamino)acetamido)-3-(benzyloxy)-N-(4-(4-fluorophenoxy)phenyl)propanamide] | 300 to 1000 |
| COc1ccccc1N1CCN(CC(=O)N[C@@H](COCc2ccccc2)C(=O)Nc2ccc(Oc3ccc(F)cc3)cc2)CC1 [Compound 217, (S)-3-(benzyloxy)-N-(4-(4-fluorophenoxy)phenyl)-2-(2-(4-(2-methoxyphenyl)piperazin-1-yl)acetamido)propanamide] | 300 to 1000 |
| O=C(CN1CCN(c2ccc(F)cc2)CC1)N[C@@H](COCc1ccccc1)C(=O)Nc1ccc(Oc2ccc(F)cc2)cc1 [Compound 218, (S)-3-(benzyloxy)-N-(4-(4-fluorophenoxy)phenyl)-2-(2-(4-(4-fluorophenyl)piperazin-1-yl)acetamido)propanamide] | 300 to 1000 |
| O=C(CN1CCC2CCCCC2C1)N[C@@H](COCc1ccccc1)C(=O)Nc1ccc(Oc2ccc(F)cc2)cc1 (stereo partly drawn) [Compound 222, (2S)-3-(benzyloxy)-N-(4-(4-fluorophenoxy)phenyl)-2-(2-(octahydroisoquinolin-2(1H)-yl)acetamido)propanamide] | 300 to 1000 |
| O=C(CN1CCN(C(=O)c2ccco2)CC1)N[C@@H](COCc1ccccc1)C(=O)Nc1ccc(Oc2ccc(F)cc2)cc1 [Compound 223, (S)-3-(benzyloxy)-N-(4-(4-fluorophenoxy)phenyl)-2-(2-(4-(furan-2-carbonyl)piperazin-1-yl)acetamido)propanamide] | 300 to 1000 |
| COc1ccc(N2CCN(CC(=O)N[C@@H](COCc3ccccc3)C(=O)Nc3ccc(Oc4ccc(F)cc4)cc3)CC2)cc1 [Compound 224, (S)-3-(benzyloxy)-N-(4-(4-fluorophenoxy)phenyl)-2-(2-(4-(4-methoxyphenyl)piperazin-1-yl)acetamido)propanamide] | 300 to 1000 |
| O=C(CN1CCN(c2ccccc2)CC1)N[C@@H](COCc1ccccc1)C(=O)Nc1ccc(Oc2ccc(F)cc2)cc1 [Compound 225, (S)-3-(benzyloxy)-N-(4-(4-fluorophenoxy)phenyl)-2-(2-(4-phenylpiperazin-1-yl)acetamido)propanamide] | 300 to 1000 |
| CC(=O)c1ccc(N2CCN(CC(=O)N[C@@H](COCc3ccccc3)C(=O)Nc3ccc(Oc4ccc(F)cc4)cc3)CC2)cc1 [Compound 229, (S)-2-(2-(4-(4-acetylphenyl)piperazin-1-yl)acetamido)-3-(benzyloxy)-N-(4-(4-fluorophenoxy)phenyl)propanamide] | 300 to 1000 |
| CCN(CC)C(=O)C1CCCN(CC(=O)N[C@@H](COCc2ccccc2)C(=O)Nc2ccc(Oc3ccc(F)cc3)cc2)C1 (stereo partly drawn) [Compound 231, 1-(2-((S)-3-(benzyloxy)-1-(4-(4-fluorophenoxy)phenylamino)-1-oxopropan-2-ylamino)-2-oxoethyl)-N,N-diethylpiperidine-3-carboxamide] | 300 to 1000 |
| CC/C=C/CC(=O)N[C@@H](COCc1ccccc1)C(=O)Nc1ccc(Oc2ccc(F)cc2)cc1 [Compound 232, (S,E)-N-(3-(benzyloxy)-1-(4-(4-fluorophenoxy)phenylamino)-1-oxopropan-2-yl)hex-3-enamide] | > 1000 |
| CC(C)CC(=O)N[C@@H](COCc1ccccc1)C(=O)Nc1ccc(Oc2ccc(F)cc2)cc1 [Compound 233, (S)—N-(3-(benzyloxy)-1-(4-(4-fluorophenoxy)phenylamino)-1-oxopropan-2-yl)-3-methylbutanamide] | 300 to 1000 |
| CC(=O)N1CCN(CC(=O)N[C@@H](COCc2ccccc2)C(=O)Nc2ccc(Oc3ccc(F)cc3)cc2)CC1 [Compound 236, (S)-2-(2-(4-acetylpiperazin-1-yl)acetamido)-3-(benzyloxy)-N-(4-(4-fluorophenoxy)phenyl)propanamide] | 300 to 1000 |
| O=C(CN1CCN(C(=O)C2CCCO2)CC1)N[C@@H](COCc1ccccc1)C(=O)Nc1ccc(Oc2ccc(F)cc2)cc1 (stereo partly drawn) [Compound 237, (2S)-3-(benzyloxy)-N-(4-(4-fluorophenoxy)phenyl)-2-(2-(4-(tetrahydrofuran-2-carbonyl)piperazin-1-yl)acetamido)propanamide] | 300 to 1000 |
| COC(=O)C1CCN(CC(=O)N[C@@H](COCc2ccccc2)C(=O)Nc2ccc(Oc3ccc(F)cc3)cc2)CC1 [Compound 238, (S)-methyl 1-(2-(3-(benzyloxy)-1-(4-(4-fluorophenoxy)phenylamino)-1-oxopropan-2-ylamino)-2-oxoethyl)piperidine-4-carboxylate] | 300 to 1000 |
| O=C(CN1CCN(Cc2c(F)cccc2Cl)CC1)N[C@@H](COCc1ccccc1)C(=O)Nc1ccc(Oc2ccc(F)cc2)cc1 [Compound 239, (S)-3-(benzyloxy)-2-(2-(4-(2-chloro-6-fluorobenzyl)piperazin-1-yl)acetamido)-N-(4-(4-fluorophenoxy)phenyl)propanamide] | ≤ 300 |
| COCCN1CCN(CC(=O)N[C@@H](COCc2ccccc2)C(=O)Nc2ccc(Oc3ccc(F)cc3)cc2)CC1 [Compound 241, (S)-3-(benzyloxy)-N-(4-(4-fluorophenoxy)phenyl)-2-(2-(4-(2-methoxyethyl)piperazin-1-yl)acetamido)propanamide] | 300 to 1000 |
| CCOCCN1CCN(CC(=O)N[C@@H](COCc2ccccc2)C(=O)Nc2ccc(Oc3ccc(F)cc3)cc2)CC1 [Compound 242, (S)-3-(benzyloxy)-N-(4-(4-fluorophenoxy)phenyl)-2-(2-(4-(2-ethoxyethyl)piperazin-1-yl)acetamido)propanamide] | 300 to 1000 |
| O=C(Cc1c[nH]cn1)N[C@@H](COCc1ccccc1)C(=O)Nc1cccc(Oc2ccccc2)c1 [Compound 243, (S)-2-(2-(1H-imidazol-4-yl)acetamido)-3-(benzyloxy)-N-(3-phenoxyphenyl)propanamide] | ≤ 300 |
